{
  "source": "patent US8247571B2",
  "about": "“Pyridinium and thiazolium conjugates including polyethylene glycols and methods of using the same” (Mycosol, Inc., priority 2005, dated 2012)",
  "origin": "cited, not measured here",
  "tested_on": "roundworms, threadworms, and whipworms",
  "settings": "reported; U.S. Pat. Nos. 3,075,975 and 3,085,935",
  "data": [
    {"smiles": "CC[n+]1c(/C=C/c2ccc(N3CCCC3)cc2)cccc1/C=C/c1ccc(N2CCCC2)cc1.[I-]", "note": "[Stilbazium iodide]", "values": [
      {"measurement": "anthelmintic effectiveness", "result": "effective"}
    ]}
  ]
}
